Measurements from patent US8324245B2, “Quinoline derivative and quinazoline derivative inhibiting self-phosphorylation of hepatocytus proliferator receptor, and medicinal composition containing the same” (Kyowa Hakko Kirin Co., Ltd., priority 2001, dated 2012).

Target: T1, met (HGF receptor) in human gastric cancer cells MKN45 (Homo sapiens, UniProt P08581)
T1 construct: endogenous in cells; host or cells: MKN45 human gastric cancer cells
Experiment: Inhibitory activity against met-autophosphorylation using ELISA method (2), MKN45 cells, HGF-independent
Format: cell-based
Procedure, shortened: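 MKN45 cells, 3×10^4 per well in RPMI with 0.1% FCS overnight, were exposed to compound in DMSO for 1 h at 37 °C without HGF. Lysates were captured on anti-phosphotyrosine (PY20) plates, Met detected with anti-Met and peroxidase secondary antibody, absorbance at 450 nm.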

T1 sequence (P08581 25-1390): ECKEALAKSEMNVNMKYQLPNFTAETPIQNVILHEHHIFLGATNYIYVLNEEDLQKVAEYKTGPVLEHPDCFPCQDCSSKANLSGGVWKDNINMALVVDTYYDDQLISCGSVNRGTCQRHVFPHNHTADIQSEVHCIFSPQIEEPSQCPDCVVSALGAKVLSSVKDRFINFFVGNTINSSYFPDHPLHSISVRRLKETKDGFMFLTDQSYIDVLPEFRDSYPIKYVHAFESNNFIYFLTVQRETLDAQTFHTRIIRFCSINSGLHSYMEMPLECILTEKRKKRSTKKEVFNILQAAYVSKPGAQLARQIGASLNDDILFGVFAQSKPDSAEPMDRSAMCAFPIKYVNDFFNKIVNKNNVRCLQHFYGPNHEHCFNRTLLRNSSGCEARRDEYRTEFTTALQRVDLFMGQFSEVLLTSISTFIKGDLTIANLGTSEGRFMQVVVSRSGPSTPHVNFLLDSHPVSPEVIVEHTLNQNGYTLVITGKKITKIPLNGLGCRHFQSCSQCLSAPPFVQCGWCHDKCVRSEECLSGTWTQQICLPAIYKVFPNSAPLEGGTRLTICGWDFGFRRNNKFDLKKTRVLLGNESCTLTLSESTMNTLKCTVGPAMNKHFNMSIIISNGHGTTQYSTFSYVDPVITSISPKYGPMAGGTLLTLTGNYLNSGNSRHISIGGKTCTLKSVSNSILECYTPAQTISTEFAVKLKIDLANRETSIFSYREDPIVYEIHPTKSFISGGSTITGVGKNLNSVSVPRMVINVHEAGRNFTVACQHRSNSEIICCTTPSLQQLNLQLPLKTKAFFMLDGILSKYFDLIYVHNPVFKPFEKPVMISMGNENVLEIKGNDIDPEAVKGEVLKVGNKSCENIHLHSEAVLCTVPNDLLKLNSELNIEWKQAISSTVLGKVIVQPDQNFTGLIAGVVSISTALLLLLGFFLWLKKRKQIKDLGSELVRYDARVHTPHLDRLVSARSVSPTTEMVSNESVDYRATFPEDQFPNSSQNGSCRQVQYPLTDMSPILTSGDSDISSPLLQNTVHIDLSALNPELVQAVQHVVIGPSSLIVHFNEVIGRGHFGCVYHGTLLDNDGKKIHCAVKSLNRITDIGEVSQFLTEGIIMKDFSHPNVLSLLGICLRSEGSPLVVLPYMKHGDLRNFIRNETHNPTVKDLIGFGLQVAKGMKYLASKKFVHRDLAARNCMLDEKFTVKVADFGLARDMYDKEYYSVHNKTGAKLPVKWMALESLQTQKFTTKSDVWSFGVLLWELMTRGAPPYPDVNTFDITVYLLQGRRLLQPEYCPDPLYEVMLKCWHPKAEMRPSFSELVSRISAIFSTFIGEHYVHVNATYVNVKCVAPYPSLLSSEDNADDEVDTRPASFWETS

Row | Compound | IC50 [nM]
1 | COc1cc2nccc(Oc3ccc(NC(=S)NC(=O)C4CCCC4)c(F)c3)c2cc1OC [Example 143, 1-cyclopentanecarbonyl-3-[4-(6,7-dimethoxy-quinolin-4-yloxy)-2-fluorophenyl]thiourea] | 3590
2 | COc1cc2c(Oc3ccc(NC(=S)NC(=O)Cc4ccccc4Cl)cc3F)ccnc2cc1OCC(O)CN1CCCCC1 (stereo not drawn) [Example 316, 1-[2-(2-Chloro-phenyl)-acetyl]-3-{3-fluoro-4-[7-(2-hydroxy-3-piperidin-1-yl-propoxy)-6-methoxy-quinolin-4-yloxy]-phenyl}-thiourea] | 188
3 | COc1cc2nccc(Oc3ccc(NC(=S)NC(=O)CCCCl)cc3F)c2cc1OC [Example 148, 1-(4-chloro-butyryl)-3-[4-(6,7-dimethoxy-quinolin-4-yloxy)-3-fluorophenyl]thiourea] | 2480
4 | COc1ccccc1NC(=O)CC(=O)Nc1ccc(Oc2ccnc3cc(OC)c(OC)cc23)cc1 [Example 211, N-[4-(6,7-dimethoxyquinolin-4-yloxy)phenyl]-N′-(2-methoxyphenyl)malonamide] | 252
5 | COc1cc2nccc(Oc3ccc(NC(=O)NC(=O)CN4CCc5ccccc54)cc3Cl)c2cc1OC [Example 8, 1-[3-chloro-4-(6,7-dimethoxyquinolin-4-yloxy)-phenyl]-3-[2-(2,3-dihydro-1H-1-indol-1-yl)acetyl]-urea] | 298
6 | COc1cc2nccc(Oc3ccc(NC(=O)NC(=O)CC4C5CCC4CC5)cc3F)c2cc1OC (stereo not drawn) [Example 127, 1-(2-bicyclo[2.2.1]hepto-7-ylacetyl)-3-[4-(6,7-dimethoxyquinolin-4-yloxy)-3-fluorophenyl]urea] | 319
7 | COc1cc2nccc(Oc3ccc(NC(=S)NC(=O)Cc4ccccc4)c(C)c3)c2cc1OC [Example 162, 1-[4-(6,7-dimethoxyquinolin-4-yloxy)-2-methylphenyl]-3-phenylacetylthiourea] | 210
8 | COc1cc2nccc(Oc3c(Cl)cc(NC(=S)NC(=O)Cc4ccccc4)cc3Cl)c2cc1OC [Example 70, 1-[3,5-dichloro-4-(6,7-dimethoxyquinolin-4-yloxy)phenyl]-3-phenylacetylthiourea] | 15.3
9 | COc1cc2nccc(Oc3ccc(NC(=O)CC(=O)Nc4ccc(F)cc4F)c(Cl)c3)c2cc1OC [Example 222, N-[2-chloro-4-(6,7-dimethoxyquinolin-4-yloxy)phenyl]-N′-(2,4-difluorophenyl)malonamide] | 201
10 | COc1cc2c(Oc3ccc(NC(=S)NC(=O)Cc4ccccc4)cc3F)ccnc2cc1OCCN1CCCN(C)CC1 [Example 273, 1-(3-Fluoro-4-{6-methoxy-7-[2-(4-methyl-[1,4]diazepan-1-yl)-ethoxy]-3-quinolin-4-yloxy}-phenyl)-3-phenylacetyl-thiourea] | 24
11 | COc1cc2nccc(Oc3ccc(NC(=O)NC(=O)Cc4ccc(F)c(F)c4)cc3)c2cc1OC [Example 39, 1-[2-(3,4-difluorophenyl)acetyl]-3-[4-(6,7-dimethoxyquinolin-4-yloxy)phenyl]urea] | 114
12 | COc1cc2c(Oc3ccc(NC(=S)NC(=O)Cc4ccccc4F)cc3Cl)ccnc2cc1OCCCN1CCOCC1 [Example 298, 1-{3-Chloro-4-[6-methoxy-7-(3-morpholin-4-yl-propoxy)-quinolin-4-yloxy]-phenyl}-3-[2-(2-fluoro-phenyl)-acetyl]-thiourea] | 89
13 | COc1cc2nccc(Oc3ccc(NC(=O)NC(=O)Cc4ccccc4F)cc3F)c2cc1OC [Example 27, 1-[4-(6,7-dimethoxyquinolin-4-yloxy)-3-fluorophenyl]-3-[2-(2-fluorophenyl)acetyl]urea] | 80
14 | COc1cc2nccc(Oc3ccc(NC(=S)NC(=O)Cc4ccccc4Cl)cc3F)c2cc1OC [Example 87, 1-[2-(2-chlorophenyl)acetyl]-3-[4-(6,7-dimethoxyquinolin-4-yloxy)-3-fluorophenyl]thiourea] | 198
15 | COc1cc2nccc(Oc3ccc(NC(=S)NC(=O)CC4CCCCC4)cc3)c2cc1OC [Example 61, 1-(2-cyclohexylacetyl)-3-[4-(6,7-dimethoxy-quinolin-4-yloxy)phenyl]thiourea] | 113
16 | COc1cccc(CC(=O)NC(=S)Nc2ccc(Oc3ccnc4cc(OC)c(OC)cc34)cc2)c1 [Example 184, 1-[4-(6,7-dimethoxyquinolin-4-yloxy)phenyl]-3-[2-(3-methoxyphenyl)acetyl]thiourea] | 268
17 | COc1cc2nccc(Oc3ccc(NC(=O)NC(=O)Cc4ccccc4)cc3F)c2cc1OC [Example 17, 1-[4-(6,7-dimethoxyquinolin-4-yloxy)-3-fluoro-phenyl]-3-phenylacetylurea] | 30.7
18 | COc1cc2nccc(Oc3ccc(NC(=S)NC(=O)CC4CCC(C)CC4)c(F)c3)c2cc1OC (stereo not drawn) [Example 191, 1-[4-(6,7-dimethoxyquinolin-4-yloxy)-2-fluorophenyl]-3-[2-(4-methyl-cyclohexyl)acetyl]thiourea] | 977
19 | COc1cc2nccc(Oc3ccc(NC(=S)NC(=O)Cc4cc(F)cc(F)c4)cc3F)c2cc1OC [Example 197, 1-[2-(3,5-difluorophenyl)acetyl]-3-[4-(6,7-dimethoxyquinolin-4-yloxy)-3-fluorophenyl]thiourea] | 284
20 | COc1cc2nccc(Oc3ccc(NC(=O)NC(=O)CSC4CCCC4)cc3Cl)c2cc1OC [Example 116, 1-[3-chloro-4-(6,7-dimethoxyquinolin-4-yloxy)phenyl]-3-(2-cyclopentylsulfanylacetyl)urea] | 344
21 | COc1cc2nccc(Oc3ccc(NC(=O)NC(=O)Nc4cccc(C(C)=O)c4)cc3)c2cc1OC [Example 261, N-(3-acetylphenyl)-({[4-(6,7-dimethoxy-quinolin-4-yloxy)anilino]carbonyl}amino)-methanamide] | 343
22 | COc1cc2nccc(Oc3ccc(NC(=S)NC(=O)Cc4c(F)ccc(F)c4F)cc3)c2cc1OC [Example 204, 1-[4-(6,7-dimethoxyquinolin-4-yloxy)phenyl]-3-[2-(2,3,6-trifluorophenyl)acetyl]thiourea] | 321
23 | CCN(CC)CCCOc1cc2nccc(Oc3ccc(NC(=O)NC(=O)Cc4ccccc4F)cc3F)c2cc1OC [Example 293, 1-{4-[7-(3-Diethylamino-propoxy)-6-methoxy-quinolin-4-yloxy]-3-fluoro-phenyl}-3-[2-(2-fluoro-phenyl)-acetyl]-urea] | 21.1
24 | COc1cc2nccc(Oc3ccc(NC(=O)NC(=O)CSC4CCCCC4)cc3F)c2cc1OC [Example 115, 1-(2-cyclohexylsulfanylacetyl)-3-[4-(6,7-dimethoxyquinolin-4-yloxy)-3-fluorophenyl]urea] | 359
25 | COc1cc2c(Oc3ccc(NC(=S)NC(=O)Cc4ccc(F)cc4)cc3F)ccnc2cc1OCCCN1CCC(CO)CC1 [Example 310, 1-(3-Fluoro-4-{7-[3-(4-hydroxymethyl-piperidin-1-yl)-propoxy]-6-methoxy-quinolin-4-yloxy}-phenyl)-3-[2-(4-fluoro-phenyl)-acetyl]-thiourea] | 21.1
26 | COc1cc2nccc(Oc3ccc(NC(=S)NC(=O)CC4C5CCC4CC5)cc3F)c2cc1OC (stereo not drawn) [Example 90, 1-(2-bicyclo[2.2.1]hepto-7-ylacetyl)-3-[4-(6,7-dimethoxyquinolin-4-yloxy)-3-fluorophenyl]thiourea] | 28.1
27 | COc1cc2nccc(Oc3ccc(NC(=O)NC(=O)Cc4ccc(F)cc4F)cc3F)c2cc1OC [Example 34, 1-[2-(2,4-difluorophenyl)acetyl]-3-[4-(6,7-dimethoxyquinolin-4-yloxy)-3-fluorophenyl]urea] | 46.3
